Legend:
gastric secretion (HCl) = test: Inhibition of the HCl secretion of the stomach, Shay rats; type: in vivo, rat; conditions: total 4 h; for ED25 / ED50: Rattus norvegicus, po, orally; for ED25: dose which reduces HCl secretion by 25% vs control; for ED50: dose which reduces HCl secretion by 50% vs control; for % inhibition of the HCl secretion: after administration of the antiulcer ED50
Experimental: (§1) The investigated compounds according to the invention have been given numbers as follows:
(§2) The effects of the investigated compounds on the formation of stomach lesions induced by pylorus ligature and oral administration of 100 mg/kg of acetylsalicylic acid and the gastric secretion (HCl) for 4 h in rats (so-called Shay rats) are shown in the table which follows.
(§3) + ED25 and ED50 = dose which reduces the lesion index and the HCl
(§4) secretion (Σ4 h) of the rat stomach in the treated group by 25 and
(§5) 50% respectively, as compared with the control group.
++ after administration of the antiulcer ED50
(§6) The ulcers are provoked in rats (female, 180-200 g, 4 animals in each cage on a high grid) kept fasting for 24 hours by pylorus ligature (under diethyl ether anaesthesia) and oral administration of 100 mg/10 ml/kg of acetylsalicylic acid. The substances to be tested are administered orally (10 ml/kg) one hour before the pylorus ligature. The wounds are closed by means of Michel clamps. 4 hours later, the animals are killed under ether intoxication by atlas dislocation and the stomach is resected. The stomach is opened longitudinally and fixed on a cork plate, after first determining the quantity of the secreted gastric juice (volume) and later its HCl content (titration with sodium hydroxide solution); the number and size (=diameter) of existing ulcers was determined by means of a stereomicroscope at 10-fold magnification. The product of the degree of severity (according to the points rating below) and of the number of ulcers is used as the individual lesion index.
(§7) The reduction in the mean lesion index of each treated group as compared with that of the control group (=100%) is taken as the measure of the anti-ulcerogenic effect.

[1] = tested on: stomach lesions induced by pylorus ligature and oral administration of 100 mg/kg of acetylsalicylic acid; test: Protective action on the stomach (anti-ulcerogenic action), Shay rats: pylorus ligature + acetylsalicylic acid; type: in vivo; conditions: Rattus norvegicus, 1 h, orally, dose which reduces the mean lesion index by 50% vs control, given one hour before pylorus ligature, read-out: Protective action on the stomach (rats), inhibition of the lesion index, ED50
Experimental: as §1, §2, §3, §4, §5
The anti-ulcerogenic action was tested by the method of so-called Shay rats:
as §6, with “index. […]” for “index.”
as §7

SMILES	ED25 (gastric secretion (HCl)) [mg/kg]	ED50 (gastric secretion (HCl)) [mg/kg]	% inhibition of the HCl secretion (gastric secretion (HCl))	ED50 [1] [mg/kg]
COc1ccnc(C[S+]([O-])c2nc3c(C)c(OC(F)F)c(C)cc3[nH]2)c1C (stereo not shown) [Serial No. 1, 5-Difluoromethoxy-2-[(4-methoxy-3-methyl-2-pyridyl)methylsulphinyl]-4,6-dimethyl-1H-benzimidazole]	0.5	1.1	22%	0.5
COc1ccnc(C(C)[S+]([O-])c2nc3cc(OC(F)F)c(OC)cc3[nH]2)c1 (stereo not shown) [Serial No. 2, 5-Difluoromethoxy-6-methoxy-2-{[1-(4-methoxy-2-pyridyl)ethyl]sulphinyl}-1H-benzimidazole]	~1	~2	~ 20%	0.6
COc1ccnc(C(C)[S+]([O-])c2nc3cc(OC(F)(F)C(F)F)ccc3[nH]2)c1 (stereo not shown) [Serial No. 3, 5-(1,1,2,2-Tetrafluoroethoxy)-2-{[1-(4-methoxy-2-pyridyl)ethyl]sulphinyl}-1H-benzimidazole]	0.35	0.8	35%	0.5
COc1ccnc(C[S+]([O-])c2nc3c(C)c(OC(F)F)c(C)cc3[nH]2)c1OC (stereo not shown) [Serial No. 4, 5-Difluoromethoxy-2-[(3,4-dimethoxy-2-pyridyl)-methylsulphinyl]-4,6-dimethyl-1H-benzimidazole]	~1.3	~2	10%	~1
COc1ccnc(C[S+]([O-])c2nc3cc(OC(F)(F)C(F)Cl)ccc3[nH]2)c1 (stereo not shown) [Serial No. 6, 5-(2-Chloro-1,1,2-trifluoroethoxy)-2-[(4-methoxy-2-pyridyl)methylsulphinyl]-1H-benzimidazole]	0.55	1.3	25%	0.55
COc1ccnc(C(C)[S+]([O-])c2nc3cc(OC(F)(F)C(F)Cl)ccc3[nH]2)c1 (stereo not shown) [Serial No. 7]	0.4	0.8	40%	0.6
COc1ccnc(CSc2nc3c(C)c(OC(F)F)c(C)cc3[nH]2)c1C [Serial No. 8, 5-Difluoromethoxy-2-[(4-methoxy-3-methyl-2-pyridyl)methylthio]-4,6-dimethyl-1H-benzimidazole]	1	1	15%	0.7
COc1ccnc(C(C)Sc2nc3cc(OC(F)F)c(OC)cc3[nH]2)c1 (stereo not shown) [Serial No. 9, 5-Difluoromethoxy-6-methoxy-2-{[1-(4-methoxy-2-pyridyl)ethyl]thio}-1H-benzimidazole]	< 1	~4	35%	1.7
COc1ccnc(C(C)[S+]([O-])c2nc3cc4c(cc3[nH]2)OC(F)(F)O4)c1 (stereo not shown) [compound 5]	1	1.7	25%	1
COc1ccnc(C[S+]([O-])c2nc3cc(OC(F)(F)C(F)Cl)ccc3[nH]2)c1C (stereo not shown) [compound 10]	0.4	0.8	27%	0.4

Source: patent US4686230A, “Picoline derivative useful as gastric acid secretion inhibitors” (Byk Gulden Lomberg Chemische Fabrik GmbH, priority 1984, dated 1987)
